The text below walks through data of patent publication US20180311342A1, “IMMUNOSTIMULATING AGENT” (AJINOMOTO CO., INC., priority 2017, published 2018).

Common to all, as to type: in vivo, BALB/c mice
Series [1] concerns anti-OVA-specific IgG1 subclass antibody. Nature of the series: Adjuvant activity test: anti-OVA-specific IgG1 subclass antibody in serum of OVA-immunized mice (ELISA). Conditions: after secondary immunization, serum 2 weeks later; OVA 5 μg + compound 0.256 μmol in 5% αCD-added saline (Addavax mixed with saline at 1:1), dorsal-subcutaneous; compared to OVA single administration group. As for the experimental part: (§1) 8-Week-old female BALB/c mice were divided into groups (N=6), and each group was primarily immunized by dorsal-subcutaneous administration of (1) ovalbumin (OVA) (5 μg) dissolved in saline as an antigen (OVA single administration group), (2) OVA 5 μg and Addavax™ (mixed with saline at 1:1) dissolved in saline (Addavax™ administration group) as positive control adjuvant, (3) OVA 5 μg and SZ137 0.256 μmol dissolved or dispersed in 5% α-cyclodextrin (hereinafter to be simply referred to as αCD)-added saline (SZ137 administration group), (4) OVA (5 μg) and SZ138 (0.256 μmol) dissolved or dispersed in 5% αCD-added saline (SZ138 administration group), (5) OVA (5 μg) and SZ142 (0.256 μmol) dissolved or dispersed in 5% αCD-added saline (SZ142 administration group), (6) OVA (5 μg) and SZ144 (0.256 μmol) dissolved or dispersed in 5% αCD-added saline (SZ144 administration group), (7) OVA (5 μg) and SZ145 (0.256 μmol) dissolved or dispersed in 5% αCD-added saline (SZ145 administration group), (8) OVA (5 μg) and SZ146 (0.256 μmol) dissolved or dispersed in 5% αCD-added saline (SZ146 administration group), (9) OVA (5 μg) and SZ147 (0.256 μmol) dissolved or dispersed in 5% αCD-added saline (SZ147 administration group), (10) OVA (5 μg) and SZ148 (0.256 μmol) dissolved or dispersed in 5% αCD-added saline (SZ148 administration group), each per mouse. Two week later, the secondary immunization was carried out by dorsal-subcutaneous administration of solutions or dispersions similar to those of the above-mentioned (1)-(10) again. Two weeks from the secondary immunization, the whole blood was extracted under anesthesia, and the obtained serum sample was measured for anti-OVA-specific IgG1 subclass antibody, anti-OVA-specific IgG2a subclass antibody, and anti-OVA-specific IgE antibody.
(§2) The measurement method of the anti-OVA-specific IgG1 subclass antibody and anti-OVA-specific IgG2a subclass antibody in Experimental Example 1 and the following Experimental Examples 2-10 is as follows.
(§3) To a 96 well plate was added 5 μg/ml OVA at 100 µl/well, and the mixture was incubated at 4° C. overnight. After incubation, the mixture was washed three times with 200 μl of PBS-T (PBS (phosphate buffered saline)+0.05% (v/v) Tween 20) per well, and blocked with 100 μl of 5% FCS (fetal calf serum)/PBS solution per well at room temperature for 1-2 hr. Thereafter, the mixture was washed three times with PBS-T (200 μl/well), a diluted serum sample (100 l/well) or the same amount of 5% FCS/PBS solution as a control was added, and the mixture was incubated at 37° C. for 1 hr. To calculate concentration of the antibody, the standard of an anti-OVA-specific IgG1 subclass antibody diluted with 2% FCS/PBS solution was added at 100 ng/ml, 50 ng/ml, 25 ng/ml, 12.5 ng/ml, 6.25 ng/ml, 3.125 ng/ml, 1.56 ng/ml, 0.781 ng/ml, 0.391 ng/ml, 0.195 ng/ml, 0.098 ng/ml, 0 ng/ml, per 1 well. When an anti-OVA-specific IgG2a subclass antibody was measured, the standard of an anti-OVA-specific IgG2a subclass antibody was added at 50 ng/ml, 25 ng/ml, 12.5 ng/ml, 6.25 ng/ml, 3.125 ng/ml, 1.56 ng/ml, 0.781 ng/ml, 0.391 ng/ml, 0.195 ng/ml, 0.098 ng/ml, 0.049 ng/ml, 0 ng/ml, per 1 well. Thereafter, similar to the samples, the mixture was washed five times with PBS-T (200 μl/well), a diluted biotinylated anti-mouse IgG1 antibody and IgG2a antibody were added (100 μl/well), and the mixture was incubated at 37° C. for 45 min. Thereafter, the mixture was washed five times with PBS-T (200 μl/well), a diluted anti-biotin-HRP antibody was added (100 μl/well), and the mixture was incubated at 37° C. for another 30 min. Thereafter, the mixture was washed five times with PBS-T (200 μl/well), TMB substrate solution was added (100 μl/well), and the mixture was incubated at room temperature for 10-15 min. Thereafter, a reaction quenching liquid (2N sulfuric acid solution) was added (50 l/well) to discontinue a color developing reaction, and the absorbance (OD Value=450 nm) was measured by a microplate reader. […]
(In general: An ELISA detects its analyte on a solid surface through an enzyme-linked reagent.)

Series [2] relates to anti-OVA-specific IgG2a subclass antibody. The series is described as follows: Adjuvant activity test: anti-OVA-specific IgG2a subclass antibody in serum of OVA-immunized mice (ELISA). As to conditions: after secondary immunization, serum 2 weeks later; OVA 5 μg + compound 0.256 μmol in 5% αCD-added saline (Addavax mixed with saline at 1:1), dorsal-subcutaneous; compared to OVA single administration group. As for the experimental part: as §1, §2, §3

For series [3], the system named is anti-OVA-specific IgE antibody. Nature of the series: Allergy inducing activity test: anti-OVA-specific IgE antibody in serum of OVA-immunized mice (DS mouse IgE ELISA (OVA) kit). As for the experimental part:
as §1
The measurement method of the anti-OVA-specific IgE antibody in Experimental Example 1 and the following Experimental Examples 2-5, 8-10 is as follows.
DS mouse IgE ELISA (OVA) kit manufactured by DS Pharma Biomedical Co., Ltd. was used. The protocol is briefly shown below.
The serum sample and a standard reagent for drawing an analytical curve are diluted with a buffer and, after stirring, left standing at room temperature for 10 min. The sample and the standard solution are added to a plate bound with an IgE capture antibody in advance and, after stirring, the mixture is left standing at room temperature for 60 min. The mixture is washed three times with wash, HRP-labeled OVA is added, and the mixture is left standing at room temperature for 30 min. The mixture is washed three times with wash, a substrate solution is added, and the mixture is left standing in dark at room temperature for 30 min. A reaction quenching liquid is added, the mixture is stirred, and the absorbance (OD Value=450 nm) is immediately measured.
The standard used is one attached to the kit, the standard curve is drawn from the measured OD Value, and the concentration is calculated. […]

`CCCCCCCCCCCCCCCCCC(=O)N[C@@H](CCCNC(=N)N)C(=O)NCCCCCCCCCCCC.Cl` [SZ137, N-[(1S)-1-(dodecylcarbamoyl)-4-guanidino-butyl]octadecanamide hydrochloride]: in series [1], the “anti-OVA-specific IgG1 subclass antibody production” value is recorded as “significantly increased”. Also, in series [2], the “anti-OVA-specific IgG2a subclass antibody production” value is “significantly increased”. Besides, in series [3] (after secondary immunization, OVA 5 μg + compound 0.256 μmol in 5% αCD-added saline (Addavax mixed with saline at 1:1), dorsal-subcutaneous, compared to OVA single administration group), the “anti-OVA-specific IgE antibody production” value is listed as “an increase in the anti-OVA-specific IgE antibody production was not observed”. Further, the “allergy inducing activity as compared to Addavax” value in series [3] (conclusion from IgE after secondary immunization, compound in 5% αCD-added saline) is given as “may have a lower allergy inducing activity”.
